Experimental data as given in ChEMBL document CHEMBL1201862, “PubChem BioAssay data set” (2004).
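Following 48 hours of exposure in 96-well plates, responses at five concentrations were used to interpolate endpoints linearly. At the GI50, growth is halved.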 Active and inactive are the calls of the source. Cut-off read from the data, not from the text of the source: active = GI50 up to about 1.1 µM and inactive = higher.

Tests used:
Experiment in all cases: growth of human tumour cells (NCI), 48 h
A498 = test system: A498
A549 = test system: A549
CAKI-1 = test system: CAKI-1
EKVX = test system: EKVX
HCT-15 = test system: HCT-15
HL-60 = test system: HL-60
HOP-62 = test system: HOP-62
HOP-92 = test system: HOP-92
HT-29 = test system: HT-29
IGROV-1 = test system: IGROV-1
LXFL 529 = test system: LXFL 529
NCI-H23 = test system: NCI-H23
OVCAR-3 = test system: OVCAR-3
OVCAR-8 = test system: OVCAR-8
RXF 393 = test system: RXF 393
SF-295 = test system: SF-295
KM12 = test system: KM12
UO-31 = test system: UO-31
SF-268 = test system: SF-268

SMILES | GI50 (A498) | GI50 (A549) | GI50 (CAKI-1) | GI50 (EKVX) | GI50 (HCT-15) | GI50 (HL-60) | GI50 (HOP-62) | GI50 (HOP-92) | GI50 (HT-29) | GI50 (IGROV-1) | GI50 (LXFL 529) | GI50 (NCI-H23) | GI50 (OVCAR-3) | GI50 (OVCAR-8) | GI50 (RXF 393) | GI50 (SF-295) | GI50 (KM12) | GI50 (UO-31) | GI50 (SF-268)
COc1ccc2oc(C(=O)O)c3c2c1CCC3 | > 100 µM (inactive) | > 100 µM (inactive) | > 100 µM (inactive) | > 100 µM (inactive) | > 100 µM | > 100 µM (inactive) | > 100 µM (inactive) | 42.5 µM (inactive) | > 100 µM (inactive) | > 100 µM (inactive) | > 100 µM (inactive) | > 100 µM (inactive) | > 100 µM (inactive) | > 100 µM (inactive) | > 100 µM (inactive) | > 100 µM (inactive) | – | – | –
CC(C)(C)[C@H]1CC[C@@](O)(c2ccccc2)CC1.CC(C)(C)[C@H]1CC[C@](O)(c2ccccc2)CC1 | 19.5 µM (inactive) | 26 µM (inactive) | – | 23.1 µM (inactive) | 23.9 µM | 16.3 µM (inactive) | 26.7 µM (inactive) | – | 16.2 µM (inactive) | 25.9 µM (inactive) | 21.1 µM (inactive) | 30.1 µM (inactive) | 17.2 µM (inactive) | 18.7 µM (inactive) | 18.6 µM (inactive) | 36.4 µM (inactive) | 22.8 µM (inactive) | 31.5 µM (inactive) | –
CC(Nc1ccc(S(=O)(=O)NC(=N)N)cc1)c1c2ccccc2nc2ccccc12 (centres undefined) | – | 31.4 µM (inactive) | 19 µM (inactive) | 25.5 µM (inactive) | 29.2 µM | 14.5 µM (inactive) | – | 18.5 µM (inactive) | 35.4 µM (inactive) | 46.5 µM (inactive) | 28.8 µM (inactive) | 22.5 µM (inactive) | > 10 µM (inactive) | 23.9 µM (inactive) | 26.9 µM (inactive) | 35.2 µM (inactive) | 34.8 µM (inactive) | 19 µM (inactive) | 31 µM (inactive)
COC(=O)CCC(NC(=S)N/N=C/c1cccs1)C(=O)OC (centres undefined) | > 100 µM (inactive) | > 100 µM (inactive) | – | > 100 µM (inactive) | > 100 µM | > 100 µM (inactive) | > 100 µM (inactive) | > 100 µM (inactive) | > 100 µM (inactive) | > 100 µM (inactive) | > 100 µM (inactive) | > 100 µM (inactive) | > 100 µM (inactive) | > 100 µM (inactive) | > 100 µM (inactive) | > 100 µM (inactive) | > 100 µM (inactive) | > 100 µM (inactive) | > 100 µM (inactive)
CC(C)(C)C1CCN(C(=O)c2ccccc2)CC1 | > 100 µM (inactive) | 90.6 µM (inactive) | – | > 100 µM (inactive) | 57.5 µM | 32.9 µM (inactive) | > 100 µM (inactive) | – | > 100 µM (inactive) | > 100 µM (inactive) | 70 µM (inactive) | > 100 µM (inactive) | 36.8 µM (inactive) | > 100 µM (inactive) | 76 µM (inactive) | > 100 µM (inactive) | > 100 µM (inactive) | > 100 µM (inactive) | –
O=C(O)CCSC(=O)Nc1ccccc1F | > 100 µM (inactive) | > 100 µM (inactive) | > 100 µM (inactive) | > 100 µM (inactive) | > 100 µM | > 100 µM (inactive) | > 100 µM (inactive) | – | > 100 µM (inactive) | – | > 100 µM (inactive) | > 100 µM (inactive) | > 100 µM (inactive) | – | > 100 µM (inactive) | – | > 100 µM (inactive) | > 100 µM (inactive) | > 100 µM (inactive)
CC(C(=O)c1ccc(Cl)cc1)C1OC(=O)C(Cl)=C1Cl (centres undefined) | 41.5 µM (inactive) | > 100 µM (inactive) | > 10 µM (inactive) | 39.4 µM (inactive) | 21.5 µM | 19 µM (inactive) | > 100 µM (inactive) | – | 31.6 µM (inactive) | 29.3 µM (inactive) | 19.8 µM (inactive) | 25.2 µM (inactive) | 28.5 µM (inactive) | 32.5 µM (inactive) | 19.7 µM (inactive) | > 100 µM (inactive) | 33.9 µM (inactive) | 95.9 µM (inactive) | 30.3 µM (inactive)
O=C1/C(=C/c2ccccc2)CNC/C1=C\c1ccccc1 | 1.97 µM (inactive) | 2.28 µM (inactive) | 5.65 µM (inactive) | 4.78 µM (inactive) | 0.612 µM | 0.406 µM (active) | 2.84 µM (inactive) | 8.13 µM (inactive) | 0.841 µM (active) | 1.87 µM (inactive) | 1.49 µM (inactive) | 1.83 µM (inactive) | 1.42 µM (inactive) | 1.71 µM (inactive) | – | 2.07 µM (inactive) | 0.962 µM (active) | 2.02 µM (inactive) | 2.2 µM (inactive)
CCCCCCCCC1C(C)c2c([nH]c3ccccc23)C2C(=O)N(c3ccccc3)C(=O)C21 (centres undefined) | 21.1 µM (inactive) | 14 µM (inactive) | 14 µM (inactive) | 21.1 µM (inactive) | 11.2 µM | 3.27 µM (inactive) | 21 µM (inactive) | – | 4.7 µM (inactive) | 17.6 µM (inactive) | 16.5 µM (inactive) | 3.73 µM (inactive) | 5.08 µM (inactive) | 11.1 µM (inactive) | 2.38 µM (inactive) | 15.7 µM (inactive) | 3.71 µM (inactive) | 15.2 µM (inactive) | –
CC12OC3(C)OC(=O)C(c4ccccc4)(O1)C3(C)O2 (centres undefined) | > 100 µM (inactive) | > 100 µM (inactive) | > 100 µM (inactive) | > 100 µM (inactive) | > 100 µM | > 100 µM (inactive) | – | > 100 µM (inactive) | > 100 µM (inactive) | > 100 µM (inactive) | > 100 µM (inactive) | > 100 µM (inactive) | > 100 µM (inactive) | > 100 µM (inactive) | > 100 µM (inactive) | > 100 µM (inactive) | > 100 µM (inactive) | > 100 µM (inactive) | > 100 µM (inactive)
CC12CCC3(OCCO3)C(OC(=O)c3ccccc3)=C1CCC21OCCO1 (centres undefined) | > 100 µM (inactive) | > 100 µM (inactive) | > 100 µM (inactive) | > 100 µM (inactive) | > 100 µM | > 100 µM (inactive) | > 100 µM (inactive) | > 100 µM (inactive) | > 100 µM (inactive) | > 100 µM (inactive) | > 100 µM (inactive) | – | > 100 µM (inactive) | > 100 µM (inactive) | > 100 µM (inactive) | > 100 µM (inactive) | > 100 µM (inactive) | > 100 µM (inactive) | > 100 µM (inactive)
O=c1[nH]c2cc([N+](=O)[O-])ccc2nc1/C(=N\NO)C(O)c1ccc([N+](=O)[O-])cc1 (centres undefined) | – | > 100 µM (inactive) | 50.2 µM (inactive) | – | 35.2 µM | 79.4 µM (inactive) | > 100 µM (inactive) | > 100 µM (inactive) | > 100 µM (inactive) | > 100 µM (inactive) | > 100 µM (inactive) | > 100 µM (inactive) | > 100 µM (inactive) | > 100 µM (inactive) | > 100 µM (inactive) | > 100 µM (inactive) | 65 µM (inactive) | > 100 µM (inactive) | > 100 µM (inactive)
